# Literature values in patent US20230201385A1, “[…] OF BACTERIA AND VIRUSES” (MULTI-MAGNETICS INCORPORATED, priority 2020, published 2023).
# Legend:
# [1] = tested on: Enterobacterales infections; conditions: murine models
# [2] = tested on: Enterobacterales
# [3] = dog, i.v.
Compound,Detection of infections by PET [1],Accumulation in cells [2],Duration of acceptable bone visualization [3] [days],Mean standard uptake value (SUV) in bone ([3]; averaged over days 8-16),Mean standard uptake value (SUV) in kidneys ([3]; averaged over days 8-16),Mean standard uptake value (SUV) in liver ([3]; averaged over days 8-16),Mean standard uptake value (SUV) in lungs ([3]; averaged over days 8-16)
"OC[C@@H](O)[C@@H](O)[C@H](O)[C@@H]([18F])CO [^18F-FDS, 2-Deoxy-2[^18F]fluoro-D-sorbitol]",specifically detect Enterobacterales infections,accumulate in Enterobacterales but not in healthy mammalian or cancer cells,–,–,–,–,–
O=P([O-])([O-])O.O=P([O-])([O-])O.[89Zr+4] [^89Zr-phosphate],–,–,20,~10,~3,~3,~3
